Test results reported in the supplement of paper PMC10307832.

Legend:
Test in all cases: relative viability (nuclei count vs DMSO), 5 days (fraction); higher = more cells survive
[1] = compound: COc1cc2ncn(-c3cc(OCc4ccccc4C(F)(F)F)c(C(N)=O)s3)c2cc1OC + CS(=O)(=O)CCNCc1ccc(-c2ccc3ncnc(Nc4ccc(OCc5cccc(F)c5)c(Cl)c4)c3c2)o1 [Lapatinib] (partner 2 µM)
Method in brief: (§1)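 Lung cancer cell lines in 1536-well plates got either a single drug or a fixed anchor-drug dose together with five library-drug doses (not always all listed) in √10 steps, by pin tool, on the day after seeding. Nuclei were counted after 5 days, and relative viability is the treated-to-vehicle ratio of nuclei counts. Values are medians of duplicate plates.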

[2] = compound: COc1cc2ncn(-c3cc(OCc4ccccc4C(F)(F)F)c(C(N)=O)s3)c2cc1OC + CC(C)C[C@H](NC(=O)[C@H](Cc1ccccc1)NC(=O)c1cnccn1)B(O)O [Bortezomib] (partner 0.002 µM)
Method in brief: as §1

[3] = compound: COc1cc2ncn(-c3cc(OCc4ccccc4C(F)(F)F)c(C(N)=O)s3)c2cc1OC + NC(=O)Nc1cc(-c2cccc(F)c2)sc1C(=O)N[C@H]1CCCNC1 [AZD7762] (partner 0.2 µM)
Method in brief: as §1

[4] = compound: COc1cc2ncn(-c3cc(OCc4ccccc4C(F)(F)F)c(C(N)=O)s3)c2cc1OC + Nc1ncn([C@H]2C[C@H](O)[C@@H](CO)O2)c(=O)n1 [Decitabine] (partner 2 µM)
Method in brief: as §1

Cell Line | relative viability ([1]; first compound 0.05 µM) | relative viability ([1]; first compound 0.1581 µM) | relative viability ([1]; first compound 0.5 µM) | relative viability ([1]; first compound 1.581 µM) | relative viability ([1]; first compound 5 µM) | relative viability ([2]; first compound 0.05 µM) | relative viability ([2]; first compound 0.1581 µM) | relative viability ([2]; first compound 0.5 µM) | relative viability ([2]; first compound 1.581 µM) | relative viability ([2]; first compound 5 µM) | relative viability ([3]; first compound 0.05 µM) | relative viability ([3]; first compound 0.1581 µM) | relative viability ([3]; first compound 0.5 µM) | relative viability ([3]; first compound 1.581 µM) | relative viability ([3]; first compound 5 µM) | relative viability ([4]; first compound 0.05 µM) | relative viability ([4]; first compound 0.1581 µM) | relative viability ([4]; first compound 0.5 µM) | relative viability ([4]; first compound 1.581 µM) | relative viability ([4]; first compound 5 µM)
NCI-H838 | 1.02 | 1.04 | 0.638 | 0.114 | 0.101 | 0.979 | 0.776 | 0.525 | 0.132 | 0.0869 | 0.968 | 0.916 | 0.73 | 0.609 | 0.581 | 0.401 | 0.426 | 0.328 | 0.169 | 0.135
NCI-H1355 | 0.966 | 0.964 | 0.771 | 0.22 | 0.152 | 1.15 | 1.15 | 0.95 | 0.232 | 0.164 | 0.793 | 0.747 | 0.456 | 0.163 | 0.137 | 0.29 | 0.333 | 0.282 | 0.187 | 0.169
NCI-H1437 | 0.865 | 0.699 | 0.243 | 0.136 | 0.113 | 0.526 | 0.38 | 0.145 | 0.148 | 0.107 | 1.24 | 1.09 | 0.6 | 0.198 | 0.154 | 0.564 | 0.561 | 0.34 | 0.266 | 0.272
NCI-H1651 | 0.916 | 0.96 | 0.365 | 0.103 | 0.108 | 1.05 | 0.9 | 0.994 | 0.708 | 0.256 | 0.415 | 0.518 | 0.32 | 0.37 | 0.303 | 0.619 | 0.64 | 0.463 | 0.192 | 0.263
NCI-H1666 | 0.905 | 0.674 | 0.298 | 0.229 | 0.325 | 0.899 | 0.801 | 0.489 | 0.28 | 0.299 | 0.84 | 0.881 | 0.8 | 0.555 | 0.483 | 0.749 | 0.719 | 0.693 | 0.501 | 0.424
NCI-H1734 | 1.14 | 0.986 | 0.792 | 0.241 | 0.186 | 1.01 | 0.884 | 0.59 | 0.234 | 0.143 | 0.588 | 0.608 | 0.511 | 0.18 | 0.134 | 0.382 | 0.588 | 0.469 | 0.214 | 0.157
NCI-H1755 | 1.03 | 1.09 | 0.868 | 0.33 | 0.281 | 0.958 | 0.965 | 0.843 | 0.355 | 0.278 | 0.431 | 0.525 | 0.397 | 0.373 | 0.259 | 0.702 | 0.682 | 0.716 | 0.57 | 0.397
NCI-H1792 | 0.935 | 0.834 | 0.868 | 0.24 | 0.0845 | 0.958 | 0.91 | 0.88 | 0.423 | 0.223 | 0.61 | 0.71 | 0.472 | 0.0325 | 0.0304 | 0.503 | 0.65 | 0.411 | 0.0575 | 0.0384
NCI-H1915 | 1.03 | 0.961 | 0.803 | 0.134 | 0.0963 | 1.04 | 0.925 | 0.853 | 0.107 | 0.0772 | 0.709 | 0.862 | 0.597 | 0.161 | 0.097 | 0.249 | 0.261 | 0.228 | 0.143 | 0.0992
NCI-H1975 | 0.862 | 0.809 | 0.411 | 0.189 | 0.161 | 0.371 | 0.335 | 0.182 | 0.144 | 0.115 | 0.737 | 0.751 | 0.564 | 0.433 | 0.261 | 0.359 | 0.302 | 0.27 | 0.153 | 0.142
NCI-H1993 | 0.954 | 0.852 | 0.594 | 0.466 | 0.51 | 1.09 | 1.13 | 0.874 | 0.618 | 0.516 | 0.921 | 0.814 | 0.53 | 0.418 | 0.381 | 0.448 | 0.631 | 0.506 | 0.364 | 0.413
NCI-H2085 | 0.824 | 0.748 | 0.527 | 0.347 | 0.322 | 0.968 | 1.11 | 0.796 | 0.529 | 0.362 | 0.969 | 0.964 | 0.862 | 0.39 | 0.248 | 0.508 | 0.502 | 0.431 | 0.36 | 0.363
NCI-H2087 | 0.995 | 1.06 | 0.582 | 0.175 | 0.121 | 0.768 | 0.782 | 0.484 | 0.167 | 0.131 | 1.37 | 1.22 | 0.575 | 0.12 | 0.109 | 0.317 | 0.227 | 0.152 | 0.0875 | 0.106
NCI-H2126 | 0.772 | 0.776 | 0.636 | 0.352 | 0.244 | 1.16 | 1.16 | 1.03 | 0.398 | 0.314 | 1.05 | 1.03 | 0.881 | 0.446 | 0.258 | 0.571 | 0.605 | 0.556 | 0.261 | 0.227
NCI-H2347 | 0.943 | 0.788 | 0.858 | 0.507 | 0.62 | 1.1 | 0.861 | 0.543 | 0.372 | 0.479 | 0.832 | 0.726 | 0.716 | 0.435 | 0.393 | 0.556 | 0.589 | 0.531 | 0.499 | 0.482
NCI-H2405 | 1.12 | 0.882 | 0.669 | 0.402 | 0.323 | 1.02 | 0.492 | 0.835 | 0.401 | 0.557 | 0.793 | 0.703 | 0.446 | 0.262 | 0.263 | 0.754 | 0.704 | 0.506 | 0.373 | 0.324
